What was measured:
[1] = tested on: HIV-1 replication; conditions: ref Ewart et al., 2004; cited from earlier work
[2] = tested on: VSV-G-pseudotyped HIV-1NL4.3E-R-Luc infection of Jurkat cells; format: cell-based
[3] = tested on: Na^+,K^+-ATPase α1 subunit (interaction with Tat); assay: Co-immunoprecipitation of Tat with endogenous Na^+,K^+-ATPase α1 subunit; format: cell-based, human; conditions: HEK293T, Tat86 transfected; ouabain 25 μM, 4 h
[4] = tested on: wt HIV-1BRU production by HEK293T cells; format: cell-based; conditions: p24 ELISA; ouabain; P<0.01 over untreated
[5] = tested on: extracellular HIV-1 Tat release from HEK293T cells; assay: HIV-1 Tat secretion assay; format: cell-based, human
[6] = tested on: HIV-1BRU infectivity in Jurkat cells; format: cell-based; conditions: P < 0.01
[7] = tested on: rat Na^+,K^+-ATPase α1 (interaction with Tat); assay: Co-immunoprecipitation of Tat with transfected rat Na^+,K^+-ATPase α1; conditions: HEK293T transfected with rat α1 constructs and Tat86-TK / Tat11-TK
[8] = tested on: rat Na^+,K^+-ATPase; conditions: ref Emanuel et al., 1988; cited from earlier work
[9] = tested on: HIV-1BRU infectivity in primary CD4 + lymphocytes; format: cell-based; conditions: p24 at 72 h, P < 0.01
[10] = tested on: HEK293T cells; conditions: ouabain 15 h
[11] = tested on: VSV-G-pseudotyped HIV-1NL4.3E-R-Luc infectivity in Jurkat cells; format: cell-based
[12] = tested on: VSV-G pseudotyped HIV-1NL4.3E-R-Luc production by HEK293T cells; format: cell-based
[13] = tested on: HIV-1 LTR transactivation in HL3T1 cells by supernatants of Tat86-transfected HEK293T cells; assay: Transcellular transactivation assay; format: cell-based; conditions: ouabain 25 μM, 4 h; HL3T1 24 h; CAT ELISA
[14] = target: Tat86 used in surface plasmon resonance (HIV-1 (strain HXB2), UniProt P04608 1-86); assay: SPR

**Q.** Which “effect on HIV-1 replication” value [1] does the source give for `CCN(c1nc(N)c(C(=O)NC(=N)N)nc1Cl)C(C)C` [EIPA, 5-(N-ethyl-N-isopropyl)amiloride] here?
**A.** Its value is “known to limit HIV-1 replication”.

**Q.** With `C[C@@H]1O[C@@H](O[C@H]2C[C@@H](O)[C@]3(CO)[C@H]4[C@H](O)C[C@]5(C)[C@@H](C6=CC(=O)OC6)CC[C@]5(O)[C@@H]4CC[C@]3(O)C2)[C@H](O)[C@H](O)[C@H]1O` [ouabain] as the molecule, how does the “effect of ouabain present at infection on virions produced without ouabain” value [2] read?
**A.** Its value is “unaffected by the presence of the drug”.

**Q.** And the “effect on Tat-α1 co-immunoprecipitation (endogenous α1)” value [3]?
**A.** Its value is “abolished this interaction”.

**Q.** What about the “production of wt HIV-1BRU virions” value [4] of the same molecule?
**A.** The value was “The same was also observed for wt HIV-1BRU virions”.

**Q.** What about the “effect on Tat protein production” value ([5]; protein levels in whole cell extracts, ouabain 25 μM) of the same molecule?
**A.** The value was “did not affect Tat protein production”.

**Q.** What about the “viral integration (Alu-PCR) by HIV-1BRU produced in presence of ouabain” value [6] of the same molecule?
**A.** The value was “reduced viral integration”.

**Q.** What about the “infectivity of HIV-1BRU produced in presence of ouabain” value ([6]; p24 at 72 h) of the same molecule?
**A.** The value was “markedly less infectious”.

**Q.** And the “co-immunoprecipitation with Tat / ouabain effect, rat α1” value [7]?
**A.** The value was “binding is not sensitive to ouabain”.

**Q.** What about the “sensitivity of rat Na^+,K^+-ATPase enzyme to ouabain” value [8] of the same molecule?
**A.** Its value is “insensitive to ouabain”.

**Q.** And the “infectivity of HIV-1BRU produced in presence of ouabain” value [9]?
**A.** Its value is “markedly less infectious”.

**Q.** What about the “cell toxicity during virus production” value [10] of the same molecule?
**A.** The value was “did not exert significant cell toxicity”.

**Q.** What about the “infectivity of virions produced in presence of ouabain” value [11] of the same molecule?
**A.** Its value is “markedly less infectious”.

**Q.** And the “viral integration (Alu-PCR) by virions produced in presence of ouabain” value [11]?
**A.** The value was “reduced viral integration”.

**Q.** And the “production of VSV-G pseudotyped virions” value [12]?
**A.** The value was “significantly decreased the production of VSV-G pseudotyped virions”.

**Q.** And the “effect of ouabain on transcellular transactivation” value [13]?
**A.** Its value is “blocked transcellular transactivation”.

**Q.** Which “amount of free Tat-TK protein in the supernatant” value ([5]; HEK293T, soluble heparin 25 μM) does the source give for heparin here?
**A.** Its value is “increased”.

B1: PMIX, equimolar mixture of the individual P1, P2 and P3 peptides (other, rat)
peptide 1: YEQAESDIMKRQPRNPKTDK
peptide 2: TRRNSVFQQGMKN
peptide 3: LIIRRRPGGWVEKETYY
**Q.** For B1, which IC50 [14] is on record?
**A.** The IC50 was 0.5 µM.

B2: synthetic P2 peptide (peptide, UniProt P06685 939-951, looked up)
peptide: TRRNSVFQQGMKN
**Q.** Which IC50 [14] does the source give for B2 here?
**A.** The IC50 was 10 µM.

— paper PMC5514404 (EBioMedicine, 2017)
